In paper PMC11792361 (BMC Complementary Medicine and Therapies, 2025):
Like-named read-outs stand apart in the source and are kept apart here.

Tests used:
[1] = tested on: prostate adenocarcinoma PC-3; experiment: MTT cytotoxicity assay, 72 h; format: cell-based, human; conditions: for IC50: read-out: IC50 PC-3; for Selectivity index IC50 for HaCaT/IC50 for PC-3 / Selectivity index IC50 for MRC-5/IC50 for PC-3: from average IC50 values
malignant melanoma A375 = experiment: MTT cytotoxicity assay, 72 h; format: cell-based, human; conditions: for IC50: read-out: IC50 A375; for Selectivity index IC50 for HaCaT/IC50 for A375 / Selectivity index IC50 for MRC-5/IC50 for A375: from average IC50 values
[2] = tested on: prostate carcinoma DU 145; experiment: MTT cytotoxicity assay, 72 h; format: cell-based, human; conditions: for IC50: read-out: IC50 DU 145
lung fibroblasts MRC-5 = experiment: MTT cytotoxicity assay, 72 h, normal cells; format: cell-based, human; conditions: for IC50: read-out: IC50 MRC-5
keratinocytes HaCaT = experiment: MTT cytotoxicity assay, 72 h, normal cells; format: cell-based, human
[3] = tested on: acute promyelocytic leukemia HL-60 cells; experiment: MTT cytotoxicity assay, 72 h; format: cell-based, human; conditions: for IC50: Homo sapiens, HL-60, 72 h, read-out: IC50 HL-60; for Selectivity index IC50 for HaCaT/IC50 for HL-60 / Selectivity index IC50 for MRC-5/IC50 for HL-60: from average IC50 values
[4] = tested on: chronic myelogenous leukemia K562; experiment: MTT cytotoxicity assay, 72 h; format: cell-based, human; conditions: for IC50: Homo sapiens, K562, 72 h, read-out: IC50 K562; for Selectivity index IC50 for HaCaT/IC50 for K562 / Selectivity index IC50 for MRC-5/IC50 for K562: from average IC50 values
breast cancer cells = conditions: MCF-7; cited from earlier work
[5] = tested on: cervical adenocarcinoma HeLa; experiment: MTT cytotoxicity assay, 72 h; format: cell-based, human; conditions: for Selectivity index IC50 for HaCaT/IC50 for HeLa / Selectivity index IC50 for MRC-5/IC50 for HeLa: from average IC50 values
[6] = tested on: triple-negative breast adenocarcinoma MDA-MB-231; experiment: MTT cytotoxicity assay, 72 h; format: cell-based, human; conditions: for IC50: Homo sapiens, MDA-MB-231, 72 h, read-out: IC50 MDA-MB-231; for Selectivity index IC50 for HaCaT/IC50 for MDA-MB-231 / Selectivity index IC50 for MRC-5/IC50 for MDA-MB-231: from average IC50 values
[7] = compounds, 72 h, average ± SD, ** two experiments
[8] = Homo sapiens, HaCaT, read-out: IC50 HaCaT

SMILES | IC50 [3] [µM] | Selectivity index IC50 for HaCaT/IC50 for HL-60 [3] | Selectivity index IC50 for MRC-5/IC50 for HL-60 [3] | IC50 ([1]; Homo sapiens, 72 h) [µM] | Selectivity index IC50 for HaCaT/IC50 for PC-3 [1] | Selectivity index IC50 for MRC-5/IC50 for PC-3 [1] | IC50 [4] [µM] | Selectivity index IC50 for HaCaT/IC50 for K562 [4] | Selectivity index IC50 for MRC-5/IC50 for K562 [4] | IC50 (malignant melanoma A375; Homo sapiens, A-375, 72 h) [µM] | Selectivity index IC50 for HaCaT/IC50 for A375 (malignant melanoma A375) | Selectivity index IC50 for MRC-5/IC50 for A375 (malignant melanoma A375) | IC50 ([2]; Homo sapiens, DU-145, 72 h) [µM] | Selectivity index IC50 for HaCaT/IC50 for DU 145 ([2]; from average IC50 values) | IC50 (lung fibroblasts MRC-5; Homo sapiens, MRC5, 72 h) [µM] | Selectivity index IC50 for HaCaT/IC50 for HeLa [5] | Selectivity index IC50 for MRC-5/IC50 for HeLa [5] | IC50 (keratinocytes HaCaT; [8]) [µM] | IC50 [6] [µM] | Selectivity index IC50 for MRC-5/IC50 for MDA-MB-231 [6] | other results
N.N.[Cl][Pt][Cl] [cisplatin, reference compound] |  |  |  |  |  |  |  |  |  |  |  |  |  |  |  |  |  |  |  |  | IC50 [1, 7]: 5.75 ± 0.16 µM; IC50 (malignant melanoma A375; compounds, 72 h, average ± SD, * single experiment): 2.3 ± 0.48 µM; IC50 [2, 7]: 6.72 ± 0.05 µM; IC50 (lung fibroblasts MRC-5; [7]): 6.37 ± 0.2 µM; IC50 (keratinocytes HaCaT; read-out: IC50 HaCaT, compounds, average ± SD, * single experiment): 2.86 ± 0.21 µM
O=C1C[C@@H](c2ccc(O)c(O)c2)Oc2cc(O)cc(O)c21 [eriodictyol] | 117 ± 15.1 | 1.47 | 1.32 | 284 ± 7.54 | 0.61 | 0.55 | 126 ± 8.11 | 1.37 | 1.23 | 138 ± 6.65 | 1.25 | 1.12 | 388 ± 16 | 0.44 | 155 ± 7.48 | 1.17 | 1.05 | 172 ± 6.81 | 51.3 ± 6.4 | 3.02 | Selectivity index IC50 for MRC-5/IC50 for DU 145 ([2]; from average IC50 values): 0.40; selectivity index (SI) against breast cancer cells (breast cancer cells): > 2.66; Selectivity index IC50 for HaCaT/IC50 for MDA-MB-231 [6]: 3.35
O=C1c2ccc(O)cc2O[C@H](c2ccc(O)c(O)c2)[C@H]1O [fustin] | > 200 |  | > 2 | > 400 |  |  | 155 ± 3.46 |  | > 2.58 | 187 ± 11.7 |  | > 2.14 | > 400 |  | > 400 |  |  | > 400 | 179 ± 19.7 | > 2.24 | cytotoxic effect at 400 µM, PC-3 ([1]; 400 µM, 72 h): did not display any cytotoxic effects; cytotoxic effect at 400 µM, DU 145 ([2]; 72 h): did not display any cytotoxic effects; cytotoxic effect at 400 µM, MRC-5 (lung fibroblasts MRC-5; 72 h): did not display any cytotoxic effects; cytotoxic effect at 400 µM, HeLa ([5]; 400 µM, 72 h): did not display any cytotoxic effects; cytotoxic effect at 400 µM, HaCaT (keratinocytes HaCaT; 400 µM): did not display any cytotoxic effects
O=c1c(O)c(-c2ccc(O)c(O)c2)oc2cc(O)ccc12 [fisetin] | 42.8 ± 3.07 | 1.86 | > 9.35 | 160 ± 14.4 | 0.50 | > 2.5 | 90.8 ± 2.73 | 0.88 | > 4.41 | 161 ± 5.91 | 0.49 | > 2.48 | > 400 | < 0.20 | > 400 | 1.31 | > 6.61 | 79.4 ± 6.03 | 45.1 ± 7.6 | > 8.88 | cytotoxic effect at 400 µM, DU 145 ([2]; 72 h): did not exhibit any cytotoxicity; cytotoxic effect at 400 µM, MRC-5 (lung fibroblasts MRC-5; 72 h): no cytotoxic effects; Selectivity index IC50 for HaCaT/IC50 for MDA-MB-231 [6]: 1.76
